Tests used:
[1] = cited from earlier work
[2] = X-Ray Powder Diffraction (XRPD); type: physicochemical; conditions: FIGS. 5A-5D
Experimental: X-Ray Powder Diffraction. With reference to FIGS. 5A-5D, XRPD was performed using the Rigaku Smart-Lab X-ray diffraction system configured for reflection Bragg-Brentano geometry using a line source X-ray beam. The X-ray source is a Cu Long Fine Focus tube that was operated at 40 kV and 44 mA. That source provides an incident beam profile at the sample that changes from a narrow line at high angles to a broad rectangle at low angles. Beam conditioning slits were used on the line X-ray source to ensure that the maximum beam size is less than 10 mm both along the line and normal to the line. The Bragg-Brentano geometry is a para-focusing geometry controlled by passive divergence and receiving slits with the sample itself acting as the focusing component for the optics. The inherent resolution of Bragg-Brentano geometry is governed in part by the diffractometer radius and the width of the receiving slit used. Typically, the Rigaku Smart-Lab is operated to give peak widths of 0.1° 2θ or less. The axial divergence of the X-ray beam is controlled by 5.0-degree Soller slits in both the incident and diffracted beam paths. […] The samples were analyzed from 2 to 40° 2θ using a continuous scan of 6° 2θ per minute with an effective step size of 0.02° 2θ.

SMILES: CCC(C(=O)NC(N)=O)c1ccccc1 (stereo not drawn) [Pheneturide, phenylethylacetylurea]
- liver enzyme induction ([1]; Nayyar et al., 2012): potent liver enzyme inducer
- serum calcium and folate ([1]; patients treated with Pheneturide): low levels

SMILES: CCC1(c2ccccc2)C(=O)N=C([O-])NC1=O.[Na+] (stereo not drawn) [USP grade P API, sodium 5-ethyl-4,6-dioxo-5-phenyl-1H-pyrimidin-2-olate]
- solid form by XRPD [2]: polymorphous
